One data set has as its target T1, Cyp2C8 (Homo sapiens, UniProt P10632).
T1 construct: host or cells: insect cells (named in the general description as the expression system for P450 cDNAs)
T1 sequence (P10632 1-490): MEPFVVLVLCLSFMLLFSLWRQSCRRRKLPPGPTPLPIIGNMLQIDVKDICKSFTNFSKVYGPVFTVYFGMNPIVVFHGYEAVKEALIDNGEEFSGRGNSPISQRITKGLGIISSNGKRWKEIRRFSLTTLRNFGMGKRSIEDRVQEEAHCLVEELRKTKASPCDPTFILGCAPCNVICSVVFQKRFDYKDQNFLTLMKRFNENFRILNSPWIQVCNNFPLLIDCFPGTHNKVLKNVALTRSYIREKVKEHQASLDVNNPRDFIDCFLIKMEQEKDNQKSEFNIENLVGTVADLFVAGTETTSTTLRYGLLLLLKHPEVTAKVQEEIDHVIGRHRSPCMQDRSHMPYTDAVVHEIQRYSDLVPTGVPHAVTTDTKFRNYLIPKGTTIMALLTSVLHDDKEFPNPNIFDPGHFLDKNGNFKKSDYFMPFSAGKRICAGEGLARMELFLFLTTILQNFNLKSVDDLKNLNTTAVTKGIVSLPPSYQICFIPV
As to the kind of experiment: CyP450-Inhibition, recombinant Cytochrome P450 isoenzymes, fluorometric assay. In kind it is in vitro ADME. The note with it: for IC50: recombinant CyP 450 enzyme, fluorescence-labelled substrate. From the text: (§1) This can be shown according to the following test system: Human liver microsomes or high level expression of cDNAs encoding Cytochrome P450 in insect cells provide a flexible source of materials for several in vitro measurement methods. A microtiter plate-based, direct fluorometric assay for the activities of any one or more of the principal drug metabolizing enzymes CYP1A2, CYP2C8, CYP2C9, CYP2C19, CYP2D6 and/or CYP3A4 is used in order to assess the potential for drug candidates to inhibit cytochrome P450.
(§2) Fluorescent marker substrates are incubated at concentrations close to their Michaelis-Men-ten affinity constant, Km. Inhibitors are tested in the 1 to 10 μM concentration range. 50% inhibition concentration (IC50 values) are estimated by non-linear regression of a two parameter model equation where the lower data limit is 0, i.e. the data are background corrected, and the upper data limit is 100, i.e. the data are range corrected. The equation assumes that y falls with increasing x. […] Extrapolation or interpolation of IC50 values beyond the concentration range studied are not provided.
(§3) Details for the assays and the technology that forms the basis for the assays are known (see C. L. Crespi et al., Analytical Biochemistry 248, 188-190 (1997), and CIL. Crespi et al., J. Pharmacol. Toxicol. Methods 44, 325-331 (2000), and the references mentioend therein). For example, 3-cyano-7-ethoxycoumarin is used as fluorescent substrate for CyP1A2, CYP2C9, CYP2C19 and CYP2D6, 7-methoxy-4-trifluoromethylcoumarin is used for CYP2C9, resorufin benzyl ether for CYP3A4, 3-82-(N,N-diethyl-N-methylammonium)ethyl]-7-methoxy-4-methylcoumarin for CYP2D6.
(§4) By the help of recombinant CyP 450 enzymes, the corresponding IC50 values for the compounds of formula I are determined. […] Description of the Assay: Fluorescence-labelled substrate compounds are incubated with different concentrations of test compound of formula I with recombinant Cytochrome P450 Isoenzymes. […] For details see above in the general description.

A further data set has as its target T2, Cyp2C9 (Homo sapiens, UniProt P11712).
T2 construct: host or cells: insect cells (named in the general description as the expression system for P450 cDNAs)
The data set is described as above. The format is in vitro ADME. Particulars: for IC50: recombinant CyP 450 enzyme, fluorescence-labelled substrate.
Text: as §1, §2, §3, §4

Another data set concerns the target T3, Cyp3A4 (Homo sapiens, UniProt P08684).
T3 construct: host or cells: insect cells (named in the general description as the expression system for P450 cDNAs)
The data set is described as above. The format is in vitro ADME. Particulars: for IC50: recombinant CyP 450 enzyme, fluorescence-labelled substrate.
Text: as §1, §2, §3, §4

Data set [1] has as its target T4, Flt-1 VEGF-receptor tyrosine kinase (Homo sapiens, UniProt P17948).
T4 construct: 10 ng of the kinase domain of Flt-1
T4 sequence (P17948 827-1158 limits assumed): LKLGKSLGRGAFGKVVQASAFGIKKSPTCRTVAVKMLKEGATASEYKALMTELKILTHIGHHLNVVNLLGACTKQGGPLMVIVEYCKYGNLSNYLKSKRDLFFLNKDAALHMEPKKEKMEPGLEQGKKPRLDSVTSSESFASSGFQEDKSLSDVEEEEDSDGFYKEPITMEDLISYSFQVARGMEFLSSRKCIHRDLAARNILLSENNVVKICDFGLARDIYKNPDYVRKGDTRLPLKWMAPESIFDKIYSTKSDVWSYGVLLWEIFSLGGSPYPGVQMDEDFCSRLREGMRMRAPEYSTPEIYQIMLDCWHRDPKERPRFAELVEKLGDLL
As to the kind of experiment: Test for activity against Flt-1 VEGF-receptor tyrosine kinase. In kind it is biochemical. The note with it: kinase domain of Flt-1, poly(Glu,Tyr) 4:1, 8 μM [33P]-ATP, 15 minutes at room temperature. As for the experimental part:
Test for activity against VEGF-receptor tyrosine kinase: the test is conducted using Flt-1 VEGF-receptor tyrosine kinase. The detailed procedure is as follows: 30 μl kinase solution (10 ng of the kinase domain of Flt-1, Shibuya et al., Oncogene 5, 519-24 [1990]) in 20 mM Tris.HCl pH 7.6, 3 mM manganese dichloride (MnCl2), 3 mM magnesium chloride (MgCl2) and 3 μg/ml poly(Glu,Tyr) 4:1 (Sigma, Buchs, Switzerland), 8 μM [^33P]-ATP (0.2 μCi/batch), 1% dimethyl sulfoxide, and 0 to 50 μM of the compound to be tested are incubated together for 15 minutes at room temperature. The reaction is then ended by the addition of 10 μl 0.25 M ethylenediaminetetraacetate (EDTA) pH 7. Using a multichannel dispenser (LAB SYSTEMS, USA), an aliquot of 20 μl is applied to a PVDF (=polyvinyl difluoride) Immobilon P membrane (Millipore, USA), which is incorporated into a Millipore microtitre filter manifold, and connected to a vacuum. Following complete elimination of the liquid, the membrane is washed 4 times successively in a bath containing 0.5% phosphoric acid (H3PO4), incubated for 10 minutes each time while shaking, then mounted in a Hewlett Packard TopCount Manifold and the radioactivity measured after the addition of 10 μl Microscint® (β-scintillation counter liquid; Packard USA). […]
The IC50 values determined are given below, insofar as they have been accurately determined: […]

Each structure is given as a SMILES string. Where only a bound is given, the exact number is not on record here.

T3 sequence (P08684 whole entry): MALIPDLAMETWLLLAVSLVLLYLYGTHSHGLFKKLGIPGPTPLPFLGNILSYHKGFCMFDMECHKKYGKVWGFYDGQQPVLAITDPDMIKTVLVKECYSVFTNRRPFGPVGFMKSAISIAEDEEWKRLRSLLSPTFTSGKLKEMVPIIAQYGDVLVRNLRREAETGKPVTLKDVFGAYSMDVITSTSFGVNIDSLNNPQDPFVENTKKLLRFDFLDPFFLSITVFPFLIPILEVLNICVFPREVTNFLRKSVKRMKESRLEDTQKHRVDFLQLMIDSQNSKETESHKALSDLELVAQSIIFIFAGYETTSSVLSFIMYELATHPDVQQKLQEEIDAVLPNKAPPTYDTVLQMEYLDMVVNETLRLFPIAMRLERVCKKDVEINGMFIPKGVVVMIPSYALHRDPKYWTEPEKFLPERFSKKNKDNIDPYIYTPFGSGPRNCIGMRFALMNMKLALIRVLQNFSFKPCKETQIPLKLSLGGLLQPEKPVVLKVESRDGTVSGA
T2 sequence (P11712 whole entry): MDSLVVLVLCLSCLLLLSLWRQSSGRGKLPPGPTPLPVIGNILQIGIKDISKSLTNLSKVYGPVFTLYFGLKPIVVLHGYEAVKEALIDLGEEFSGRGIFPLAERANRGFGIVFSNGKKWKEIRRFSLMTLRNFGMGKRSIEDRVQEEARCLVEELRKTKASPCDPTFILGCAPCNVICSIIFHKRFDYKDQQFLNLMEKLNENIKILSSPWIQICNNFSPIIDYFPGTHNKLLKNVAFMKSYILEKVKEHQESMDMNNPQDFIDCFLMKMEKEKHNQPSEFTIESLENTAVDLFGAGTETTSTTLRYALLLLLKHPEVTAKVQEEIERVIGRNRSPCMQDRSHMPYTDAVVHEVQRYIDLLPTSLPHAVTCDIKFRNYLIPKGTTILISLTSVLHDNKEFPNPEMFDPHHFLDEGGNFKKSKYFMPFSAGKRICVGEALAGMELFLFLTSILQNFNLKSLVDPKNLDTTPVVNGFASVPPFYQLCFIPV

For orientation: IC50 means the concentration that gives 50% inhibition. With `CCc1ccc(Nc2nnc(Cc3ccc(=O)[nH]c3)c3ccccc23)cc1Br` [Ex. 8], the “lower inhibition when compared with Ex. 14 q from WO 00/59509” value on Cyp2C8 (ratio of IC50 values), on Cyp2C9 (ratio of IC50 values) and on Cyp3A4 (ratio of IC50 values) was “more than two-fold” each time. Moreover, the results for the IC50 on Cyp2C8, on Cyp2C9 and on Cyp3A4 were over 10 µM, 3.5 µM and 2.8 µM, respectively.

On to `COc1cc(Cc2nnc(N[C@H]3CC[C@H](C(C)C)CC3)c3ccccc23)ccn1` [Example 1 d)], for which the IC50 in data set [1] came to 1.2 µM.

As a reminder, the melting point is the temperature of the solid-liquid transition. Regarding `CC(C)[C@H]1CC[C@H](Nc2nnc(Cc3ccnc(O)c3)c3ccccc23)CC1` [Example 1, trans 1-(4-Isopropyl-cyclohexylamino)4-[2-hydroxy-(pyridin-4-yl)methyl]-phthalazine], the melting point is 266 to 267 °C (dec.).

`CCc1ccc(Nc2nnc(Cc3ccnc(OC)c3)c3ccccc23)cc1Br` [Example 2 d), 1-(3-Bromo-4ethyl-anilino)-4-[2-methoxy-(pyridin-4-yl)-methyl]-phthalazine]: the IC50 in data set [1] came to 1.9 µM.

As to `CCc1ccc(Nc2nnc(Cc3ccncc3)c3ccccc23)cc1Br` [WO 00/59509 (Ex. 14 q), reference compound], the IC50 is 5 µM at Cyp2C8, under 1 µM at Cyp2C9 and under 1 µM on Cyp3A4.
